According to paper PMC4001449, “Thienoquinolines as Novel Disruptors of the PKCε/RACK2 Protein–Protein Interaction” (Journal of Medicinal Chemistry, 2014):

Experiments:
[1] = test system: PC-3 prostate adenocarcinoma cells; test: Cell proliferation (SRB assay), PC-3; type: cell-based, human; settings: PC-3, 50 μM, 72 h
Protocol: HeLa cells containing a tetracycline/doxycycline-inducible constitutively active PKCε were described previously.[26] A PathDetect HeLa HLR cell line was obtained from Agilent, Technologies, Wokingham, U.K. PC-3 prostate adenocarcinoma cells were obtained from Dr. Helmut Klocker, Department of Urology, Innsbruck Medical University. For cell proliferation HeLa HLR and PC-3 cells were seeded at ∼10 000 cells per well in 96-well plates. After 4 h various concentrations of 8 were added and left for 72 h. Cell proliferation was determined by the SRB assay.[35]

[2] = biological target: T1, PKCε/RACK2 interaction (Homo sapiens, UniProt P35606); test: PKCε/RACK2 in vitro binding assay (ELISA-based); settings: 25 μM solution, Figure 2A
T1 sequence (P35606 1-906): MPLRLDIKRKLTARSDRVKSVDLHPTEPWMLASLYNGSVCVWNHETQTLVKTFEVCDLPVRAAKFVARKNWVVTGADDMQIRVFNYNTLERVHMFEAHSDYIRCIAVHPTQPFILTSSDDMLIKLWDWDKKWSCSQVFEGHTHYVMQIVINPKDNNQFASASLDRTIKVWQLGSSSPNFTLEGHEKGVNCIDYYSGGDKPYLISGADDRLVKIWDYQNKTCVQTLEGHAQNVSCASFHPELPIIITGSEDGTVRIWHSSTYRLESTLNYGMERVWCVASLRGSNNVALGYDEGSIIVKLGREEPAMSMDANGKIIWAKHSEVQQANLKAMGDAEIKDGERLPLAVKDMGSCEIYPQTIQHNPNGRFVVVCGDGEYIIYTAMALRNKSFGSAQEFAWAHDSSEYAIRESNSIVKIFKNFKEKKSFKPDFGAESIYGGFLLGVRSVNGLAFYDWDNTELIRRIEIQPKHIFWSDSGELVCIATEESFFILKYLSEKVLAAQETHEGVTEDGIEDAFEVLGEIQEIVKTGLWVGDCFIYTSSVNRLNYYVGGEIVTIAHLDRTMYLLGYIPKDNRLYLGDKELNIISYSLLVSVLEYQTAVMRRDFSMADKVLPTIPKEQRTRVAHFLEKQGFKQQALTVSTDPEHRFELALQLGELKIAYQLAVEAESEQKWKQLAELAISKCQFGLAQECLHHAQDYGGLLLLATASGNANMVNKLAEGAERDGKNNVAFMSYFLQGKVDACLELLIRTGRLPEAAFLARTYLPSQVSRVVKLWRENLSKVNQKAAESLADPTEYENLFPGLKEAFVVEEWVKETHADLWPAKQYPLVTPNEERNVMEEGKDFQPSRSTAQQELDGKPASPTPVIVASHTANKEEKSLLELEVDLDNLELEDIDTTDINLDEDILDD
Protocol: Recombinant RACK2 tagged with maltose-binding protein (RACK2-MBP) was purified on columns with amylose resin (New England Biolabs, Ipswich, MA) as described by the manufacturer. The recombinant protein was analyzed by Coomassie Blue staining and Western blotting after SDS–PAGE. Aliquots were stored in liquid nitrogen. The interaction between PKCε and RACK2 was measured using an ELISA-based assay. The 96-well EIA/RIA high binding plates (Costar) were coated with 100 ng of recombinant PKCε (ProQinase, Freiburg, Germany) in buffer A (20 mM Tris-HCl/100 mM NaCl, pH 7.5) at 4 °C on a shaker with gentle agitation overnight. The plate was washed twice with 225 μL/well buffer A. After blocking of unspecific binding sites with 225 μL of sterile-filtered 3% bovine serum albumin (BSA; Sigma-Aldrich, St. Louis, MO) in buffer A at room temperature for 3 h, the plate was washed twice with 225 μL of this buffer. PKCε was left untreated or activated by addition of 60 μg/mL phosphatidylserine (Sigma-Aldrich) and 100 nM TPA (Sigma-Aldrich) in a volume of 50 μL of buffer A for 10 min at 30 °C. […] Color development was measured on a plate reader at a wavelength of 420 nm.

[3] = biological target: PIM3 (Homo sapiens, UniProt Q86V86); test: Kinase profiling (Dundee), PIM3; type: biochemical; settings: 25 μM solution

`CC(=O)c1cccc(NC(=O)c2sc3nc4cc5c(cc4cc3c2N)OCCO5)c1` [Compound 8, N-(3-acetylphenyl)-9-amino-2,3-dihydro-1,4-dioxino[2,3-g]thieno[2,3-b]quinoline-8-carboxamide] was tested, and the “Inhibition of cell proliferation” value [1] was “did not show any inhibition”, the “PKCε/RACK2 interaction, % of untreated controls” value [2] was “approximately 10 % of untreated controls” and the “PIM3 activity, % of control” value [3] was 46 % of control.
